Earlier results in PMC8891573, “Dysregulation of the Nitric Oxide/Dimethylarginine Pathway in Hypoxic Pulmonary Vasoconstriction—Molecular Mechanisms and Clinical Significance” (Frontiers in Medicine, 2022).
Read-outs that look alike come from different tables or passages of the source.

Assays:
CAT-2 = system: CAT-2; design: method as in PMID 28684763, PMID 9701046
mice = system: mice; design: method as in PMID 17068215; settings: acute HX exposure, HC or SC mice, i.p. injection of ADMA
eNOS = settings: for effect on NOS activity: competition with L-arginine for the NOS catalytic site
[1] = design: method as in PMID 9799202
mouse lungs = system: mouse lungs; design: method as in PMID 19648472; settings: oral L-arginine treatment
isolated aortic rings = system: isolated aortic rings; design: method as in PMID 2870025
ETA and ETB receptors = system: ETA and ETB receptors; design: method as in PMID 8847282, PMID 8873714, PMID 20415698; settings: animal models and clinical studies
[2] = inhaled NO, small trials

**Q.** What does the source list for CN(C)C(N)=NCCC[C@H](N)C(=O)O [ADMA, asymmetric dimethylarginine]?
**A.** inhibition of CAT-2, cellular uptake transporter for L-arginine (CAT-2): may inhibit; HX survival time (mice): ADMA increased HX survival time in HC and in SC mice; the effect was mediated by regulation of eNOS activity; inhibition of eNOS (eNOS): competitive inhibitor; effect on NOS activity (eNOS): competitively inhibits NOS activity

**Q.** With N=C(N)NCCC[C@H](N)C(=O)O [L-arginine] as the molecule, how does the “reversal of impaired NO generation and endothelial dysfunction due to elevated ADMA” value [1] read?
**A.** reversible

**Q.** And the “PRMT2, DDAH2, ADMA and nitrotyrosine changes in ovalbumin-treated mice” value (mouse lungs)?
**A.** PRMT2 ↑ and DDAH2 ↓ in ovalbumin-treated mice, along with ↑ ADMA and ↑ nitrotyrosine; Reversal with oral L-arginine treatment

**Q.** With CN=C(NC)NCCC[C@H](N)C(=O)O [SDMA, symmetric dimethylarginine] as the molecule, how does the “inhibition of CAT-2, cellular uptake transporter for L-arginine” value (CAT-2) read?
**A.** may inhibit

**Q.** What about the “effect on NOS activity” value (eNOS) of the same molecule?
**A.** unable to directly interfere with NOS activity

**Q.** Which “vascular response of aortic rings” value (isolated aortic rings; Wistar rats) does the source give for CC(=O)OCC[N+](C)(C)C [acetylcholine] here?
**A.** endothelium-dependent vasodilation

**Q.** And the “vascular response of aortic rings” value (isolated aortic rings; spontaneously hypertensive rats (SHR))?
**A.** vasoconstriction

**Q.** For COc1ccccc1Oc1c(NS(=O)(=O)c2ccc(C(C)(C)C)cc2)nc(-c2ncccn2)nc1OCCO [bosentan], which “effect on HPV” value (ETA and ETB receptors) is on record?
**A.** variable effects

**Q.** With Nitric oxide [NO] as the molecule, how does the “effects on COVID-19-associated hypoxaemia and outcome” value [2] read?
**A.** inconclusive
